Reference: patent US20230241178A1, “LONG ACTING GLP-1/GIP DUAL AGONISTS” (SUN PHARMACEUTICAL INDUSTRIES LIMITED, priority 2020, published 2023)
Marks after values point to notes of the source that are not given here.

Key:
[1] = test system: type 2 diabetic mouse (db/db) model; assay: Reduction of HbA1c in db/db type 2 diabetic mice after chronic treatment (HbA1c, insulin, triglycerides, food consumption, body weight); assay type: in vivo; details: for Cumulative Food Consumption Day 0-28 / Insulin / Triglycerides / Δ% HbA1c vs. DC / Body Weight (%) Day 28 vs. Baseline: db/db mice
Protocol: This study was performed in a type 2 diabetic mouse (db/db) model. […] All the treatments were injected subcutaneously every third day for 10 doses (q3d*10). % HbA1c, Insulin, Triglycerides levels were measured on Day 0, day 14 and day 28. Cumulative food intake from day 0-28 and % Change in body weight compared to day 0 was calculated on day 28.

GLP-1R = molecular target: T1, GLP-1R (Homo sapiens, UniProt P43220); assay: cAMP assay (cAMP Hunter eXpress GPCR Assay) on GLP-1R-expressing cells; assay type: cell-based; details: read-out: half-maximal effective concentration, cellular cAMP
T1 construct: host or cells: GLP-1R-expressing cells of the cAMP Hunter eXpress GPCR Assay kit
Protocol: (§1) In-vitro potency determination was performed using cAMP assay. G protein coupled receptor (GPCR) activation following ligand binding initiates a series of second messenger cascades that results in a cellular response. Signaling by the GLP-1R and GIP-R involves activation of adenylate cyclase and cAMP production. Cellular cAMP production was determined using the cAMP Hunter™ eXpress GPCR Assay (Eurofins DiscoveRx).

GIPR = molecular target: T2, GIPR (Homo sapiens, UniProt P48546); assay: cAMP assay (cAMP Hunter eXpress GPCR Assay) on GIPR-expressing cells; assay type: cell-based; details: read-out: half-maximal effective concentration, cellular cAMP
T2 construct: host or cells: GIPR-expressing cells of the cAMP Hunter eXpress GPCR Assay kit
T2 sequence (P48546 22-466): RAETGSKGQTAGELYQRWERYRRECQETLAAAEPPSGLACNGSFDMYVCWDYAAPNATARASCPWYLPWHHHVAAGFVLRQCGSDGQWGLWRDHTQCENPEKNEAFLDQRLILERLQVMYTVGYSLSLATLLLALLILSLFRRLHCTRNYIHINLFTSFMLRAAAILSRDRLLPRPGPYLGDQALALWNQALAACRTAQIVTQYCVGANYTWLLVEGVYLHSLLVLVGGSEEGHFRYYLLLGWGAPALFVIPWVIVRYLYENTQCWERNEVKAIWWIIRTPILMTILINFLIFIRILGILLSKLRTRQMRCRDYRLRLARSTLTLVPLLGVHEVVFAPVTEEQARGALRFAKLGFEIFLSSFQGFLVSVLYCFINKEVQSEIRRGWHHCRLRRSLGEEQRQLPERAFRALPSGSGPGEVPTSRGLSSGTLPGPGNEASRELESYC
Protocol: as §1

[2] = test system: type 2 diabetic mouse (db/db) model; assay: Reduction in blood glucose and effect on body weight and food intake, single dose, db/db mice (Tables 4, 5); assay type: in vivo
Protocol: The effect of Compounds of present invention on blood glucose was studied on mice. This study was performed in a type 2 diabetic mouse (db/db) model. […] Baseline blood glucose was measured from all the animals. All animals were administered with its respective test item subcutaneously. […] Delta blood glucose (mM) was calculated. Similarly body weight changes and cumulative food consumption was measured at 96 hr post treatment.

[3] = test system: type 2 diabetic mouse (db/db) model; assay: Effect of Compound 2 and 7 on blood glucose, body weight and food consumption in mice, up to 72 hr (Tables 6, 7); assay type: in vivo; details: 10 nM/kg
Protocol: Similarly body weight changes and cumulative food consumption was measured at 72 hr post treatment.

[4] = test system: type 2 diabetic mouse (db/db) model; assay: Effect on blood glucose, food intake and body weight, single s.c. dose 10 nM/kg, db/db mice (Tables 8, 9); assay type: in vivo; details: 10 nM/kg/s.c/single dose
Protocol: This study was performed in a type 2 diabetic mouse (db/db) model. […] Baseline blood glucose was measured from all the animals. All the animals were administered with test items subcutaneously. Blood glucose was measured at 4 hr, 12 hr, 24 hr, 48 hr, 72 hr and 96 hr post treatment. Delta blood glucose (mM) was calculated. Body weight changes and cumulative food consumption was measured at 96 hr post treatment. Similarly the effect of Compounds 11-15 on blood glucose, food intake and body weight was studied in a separate study except for Compound 13. The results are shown in Table 8 (effect on blood glucose) and Table 9 (effect on body weight and food consumption).

[5] = test system: type 2 diabetic mouse (db/db) model; assay: Reduction of HbA1c in db/db type 2 diabetic mice after chronic treatment (HbA1c, insulin, triglycerides, food consumption, body weight); assay type: in vivo; details: 9 nM/kg and 18 nM/kg dose
[6] = 6 nM/kg s.c., separate study n = 5

T1 sequence (P43220 24-463): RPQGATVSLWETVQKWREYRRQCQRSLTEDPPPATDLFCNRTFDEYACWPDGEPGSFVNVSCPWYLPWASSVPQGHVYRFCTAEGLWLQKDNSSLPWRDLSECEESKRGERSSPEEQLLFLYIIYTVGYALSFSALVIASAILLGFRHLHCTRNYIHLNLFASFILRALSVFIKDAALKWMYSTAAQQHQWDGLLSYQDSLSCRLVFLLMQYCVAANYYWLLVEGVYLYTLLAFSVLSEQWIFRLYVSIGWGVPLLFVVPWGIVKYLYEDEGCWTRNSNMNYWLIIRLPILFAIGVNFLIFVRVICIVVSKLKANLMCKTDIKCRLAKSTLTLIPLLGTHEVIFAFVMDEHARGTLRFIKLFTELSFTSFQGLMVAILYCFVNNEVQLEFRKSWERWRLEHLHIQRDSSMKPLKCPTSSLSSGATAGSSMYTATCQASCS

For `CC[C@H](C)[C@H](NC(=O)[C@H](CC(C)C)NC(=O)[C@H](Cc1c[nH]c2ccccc12)NC(=O)[C@H](CCC(N)=O)NC(=O)[C@@H](NC(=O)[C@H](Cc1ccccc1)NC(=O)[C@H](C)NC(=O)[C@H](CCCCNC(=O)COCCOCCNC(=O)C(C)(C)NC(=O)CC[C@H](NC(=O)CCCCCCCCCCCCCCCCCCC(=O)O)C(=O)O)NC(=O)[C@H](CCC(N)=O)NC(=O)[C@H](C)NC(=O)[C@@H](NC(=O)[C@H](CCCCN)NC(=O)[C@H](CC(=O)O)NC(=O)[C@H](CC(C)C)NC(=O)C(C)(C)NC(=O)[C@@H](NC(=O)[C@H](CO)NC(=O)[C@H](Cc1ccc(O)cc1)NC(=O)[C@H](CC(=O)O)NC(=O)[C@H](CO)NC(=O)[C@@H](NC(=O)[C@H](Cc1ccccc1)NC(=O)[C@@H](NC(=O)CNC(=O)[C@H](CCC(=O)O)NC(=O)C(C)(C)NC(=O)[C@@H](N)Cc1ccc(O)cc1)[C@@H](C)O)[C@@H](C)O)[C@@H](C)CC)[C@@H](C)CC)C(C)C)C(=O)N[C@@H](C)C(=O)NCC(=O)NCC(=O)N1CCC[C@H]1C(=O)N[C@@H](CO)C(=O)N[C@@H](CO)C(=O)NCC(=O)N[C@@H](C)C(=O)N1CCC[C@H]1C(=O)N1CCC[C@H]1C(=O)N1CCC[C@H]1C(=O)N[C@@H](CO)C(N)=O` [Compound 2], the “insulin levels compared to the diabetic control group (in words)” value ([1]; 9 nM/kg, day 14) was “statistically significant increase in insulin levels”, the “triglycerides compared to the diabetic control group (in words)” value ([1]; 4.5, 9 and 18 nM/kg) was “statistically significant lowering of triglycerides” and the “change in HbA1c compared to the diabetic control (in words)” value ([1]; 4.5, 9 and 18 nM/kg, day 14 and 28th day) was “statistically significant change in HbA1c”. For the same compound, the “body weight compared to the diabetic control group (in words)” value ([1]; 4.5, 9 and 18 nM/kg, day 28) was “statistically significant decrease in body weight”, the “cumulative food consumption compared to the diabetic control group (in words)” value ([1]; 4.5, 9 and 18 nm/kg, course of the study) was “statistically significant reduction in cumulative food consumption” and the “Cumulative Food Consumption Day 0-28” value ([1]; 4.5 nM/kg s.c. q3d*10) was 112.4. The “Cumulative Food Consumption Day 0-28” value ([1]; 9 nM/kg s.c. q3d*10) was 111.8, the “Cumulative Food Consumption Day 0-28” value ([1]; 18 nM/kg s.c. q3d*10) was 89.5 and the Insulin ([1]; Day 14, 4.5 nM/kg s.c. q3d*10) was 34.75 ng/mL. The Triglycerides ([1]; Day 14, 4.5 nM/kg s.c. q3d*10) was 218.7 mg/dL, the “Δ% HbA1c vs. DC” value ([1]; Day 14, 4.5 nM/kg s.c. q3d*10) was −2.43*** % and the Insulin ([1]; Day 14, 9 nM/kg s.c. q3d*10) was 69.63 ng/mL. The Triglycerides ([1]; Day 14, 9 nM/kg s.c. q3d*10) was 169.8 mg/dL, the “Δ% HbA1c vs. DC” value ([1]; Day 14, 9 nM/kg s.c. q3d*10) was −2.90*** % and the Insulin ([1]; Day 14, 18 nM/kg s.c. q3d*10) was 75.09 ng/mL. For the same compound, the Triglycerides ([1]; Day 14, 18 nM/kg s.c. q3d*10) was 172.4 mg/dL, the “Δ% HbA1c vs. DC” value ([1]; Day 14, 18 nM/kg s.c. q3d*10) was −3.04*** % and the “Body Weight (%) Day 28 vs. Baseline” value ([1]; Day 28, 4.5 nM/kg s.c. q3d*10) was −7.0%. For the same compound, the Insulin ([1]; Day 28, 4.5 nM/kg s.c. q3d*10) was 33.44 ng/mL, the Triglycerides ([1]; Day 28, 4.5 nM/kg s.c. q3d*10) was 208.9 mg/dL and the “Δ% HbA1c vs. DC” value ([1]; Day 28, 4.5 nM/kg s.c. q3d*10) was −3.64*** %. For the same compound, the “Body Weight (%) Day 28 vs. Baseline” value ([1]; Day 28, 9 nM/kg s.c. q3d*10) was −8.9%, the Insulin ([1]; Day 28, 9 nM/kg s.c. q3d*10) was 53.87 ng/mL and the Triglycerides ([1]; Day 28, 9 nM/kg s.c. q3d*10) was 147.4 mg/dL. The “Δ% HbA1c vs. DC” value ([1]; Day 28, 9 nM/kg s.c. q3d*10) was −4.19*** %, the “Body Weight (%) Day 28 vs. Baseline” value ([1]; Day 28, 18 nM/kg s.c. q3d*10) was −9.3% and the Insulin ([1]; Day 28, 18 nM/kg s.c. q3d*10) was 76.93 ng/mL. The Triglycerides ([1]; Day 28, 18 nM/kg s.c. q3d*10) was 144.3 mg/dL, the “Δ% HbA1c vs. DC” value ([1]; Day 28, 18 nM/kg s.c. q3d*10) was −4.25*** % and the EC50 (GLP-1R) was 4.1 nM. The EC50 (GIPR) was 2.3 nM, the “Cumulative Food Intake (g) 0-96 hr, Mean” value ([2]; 3 nM/kg s.c., n = 6 study) was 14.6*** g and the “Body Weight Change (%) 96 hr., Mean” value ([2]; 3 nM/kg s.c., n = 6 study) was −5*** %. The “Cumulative Food Intake (g) 0-96 hr, Mean” value [2, 6] was 18.2 g, the “Body Weight Change (%) 96 hr., Mean” value [2, 6] was −0.9% and the “Delta Blood Glucose (mM), Mean” value ([2]; 4 hr post treatment, @ 3 nM s.c., n = 6 study) was -12.6 mM. The “Delta Blood Glucose (mM), Mean” value ([2]; 4 hr post treatment, @ 6 nM s.c., separate study n = 5) was −14.4*** mM, the “Delta Blood Glucose (mM), Mean” value ([2]; 12 hr post treatment, @ 3 nM s.c., n = 6 study) was -10.6 mM and the “Delta Blood Glucose (mM), Mean” value ([2]; 12 hr post treatment, @ 6 nM s.c., separate study n = 5) was −18.0*** mM. For the same compound, the “Delta Blood Glucose (mM), Mean” value ([2]; 24 hr post treatment, @ 3 nM s.c., n = 6 study) was -8.3 mM, the “Delta Blood Glucose (mM), Mean” value ([2]; 24 hr post treatment, @ 6 nM s.c., separate study n = 5) was −16.9*** mM and the “Delta Blood Glucose (mM), Mean” value ([2]; 48 hr post treatment, @ 3 nM s.c., n = 6 study) was -7.3 mM. For the same compound, the “Delta Blood Glucose (mM), Mean” value ([2]; 48 hr post treatment, @ 6 nM s.c., separate study n = 5) was −8.9*** mM, the “Delta Blood Glucose (mM), Mean” value ([2]; 72 hr post treatment, @ 3 nM s.c., n = 6 study) was -4.7 mM and the “Delta Blood Glucose (mM), Mean” value ([2]; 72 hr post treatment, @ 6 nM s.c., separate study n = 5) was 0.1 mM. The “Delta Blood Glucose (mM), Mean” value ([2]; 96 hr post treatment, @ 3 nM s.c., n = 6 study) was -0.3 mM, the “Delta Blood Glucose (mM), Mean” value ([2]; 96 hr post treatment, @ 6 nM s.c., separate study n = 5) was 2.1 mM and the “time for which efficacy on blood glucose was maintained” value [3] was 72 h. For the same compound, the “% Body wt. change 72 hr. vs. 0 hr., Mean” value ([3]; mice, n = 8) was −7.2*** %, the “Cumulative Food Consumption (0-72 hr) (g), Mean” value ([3]; mice, n = 8) was 8.4*** g and the “Delta Blood Glucose (mM), Mean” value ([3]; 4 hr post treatment, mice, n = 8) was -15.6 mM. The “Delta Blood Glucose (mM), Mean” value ([3]; 8 hr post treatment, mice, n = 8) was -16.3 mM, the “Delta Blood Glucose (mM), Mean” value ([3]; 12 hr post treatment, mice, n = 8) was -16.0 mM and the “Delta Blood Glucose (mM), Mean” value ([3]; 24 hr post treatment, mice, n = 8) was -14.6 mM. For the same compound, the “Delta Blood Glucose (mM), Mean” value ([3]; 72 hr post treatment, mice, n = 8) was -4.1 mM, the “Delta Blood Glucose (mM), Mean” value ([4]; 0 hr (baseline)) was 0.0 mM and the “Body Wt. Change (%) 96 hr. vs. Baseline, Mean” value [4] was −4.2*** %. The “Cumulative food Intake (g) 96 hr. vs. Baseline, Mean” value [4] was 12.3*** g, the “blood glucose reduction post treatment (in words)” value [4] was “statistically significant blood glucose reduction” and the “Delta Blood Glucose (mM), Mean” value ([4]; 4 hr post treatment) was −13.1*** mM. For the same compound, the “Delta Blood Glucose (mM), Mean” value ([4]; 12 hr post treatment) was −11.7*** mM, the “Delta Blood Glucose (mM), Mean” value ([4]; 24 hr post treatment) was −8.2*** mM and the “Delta Blood Glucose (mM), Mean” value ([4]; 48 hr post treatment) was −6.0** mM. For the same compound, the “Delta Blood Glucose (mM), Mean” value ([4]; 72 hr post treatment) was -2.8 mM, the “Delta Blood Glucose (mM), Mean” value ([4]; 96 hr post treatment) was 0.6 mM and the “reduction in HbA1c on day 29 more than the reduction on day 14” value [5] was “more than 40%”.
